target: human Cav2.2 (Homo sapiens, UniProt Q00975); experiment: Assessment of calcium channel activity using FLIPR (Ca2+ influx in IMR32 cells); type: cell-based; conditions: IMR32 cells endogenously expressing human Cav2.2; 60 minute pre-incubation; 2 μM nifedipine; depolarized with 80 mM KCl, 5 mM CaCl2
Summary of the method: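 FLIPR measured Ca2+ influx triggered by 80 mM KCl depolarization together with a step to 5 mM external CaCl2. Percent inhibition relative to uninhibited activity was fitted sigmoidally for IC50.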

Sequence of human Cav2.2 (Q00975 whole entry): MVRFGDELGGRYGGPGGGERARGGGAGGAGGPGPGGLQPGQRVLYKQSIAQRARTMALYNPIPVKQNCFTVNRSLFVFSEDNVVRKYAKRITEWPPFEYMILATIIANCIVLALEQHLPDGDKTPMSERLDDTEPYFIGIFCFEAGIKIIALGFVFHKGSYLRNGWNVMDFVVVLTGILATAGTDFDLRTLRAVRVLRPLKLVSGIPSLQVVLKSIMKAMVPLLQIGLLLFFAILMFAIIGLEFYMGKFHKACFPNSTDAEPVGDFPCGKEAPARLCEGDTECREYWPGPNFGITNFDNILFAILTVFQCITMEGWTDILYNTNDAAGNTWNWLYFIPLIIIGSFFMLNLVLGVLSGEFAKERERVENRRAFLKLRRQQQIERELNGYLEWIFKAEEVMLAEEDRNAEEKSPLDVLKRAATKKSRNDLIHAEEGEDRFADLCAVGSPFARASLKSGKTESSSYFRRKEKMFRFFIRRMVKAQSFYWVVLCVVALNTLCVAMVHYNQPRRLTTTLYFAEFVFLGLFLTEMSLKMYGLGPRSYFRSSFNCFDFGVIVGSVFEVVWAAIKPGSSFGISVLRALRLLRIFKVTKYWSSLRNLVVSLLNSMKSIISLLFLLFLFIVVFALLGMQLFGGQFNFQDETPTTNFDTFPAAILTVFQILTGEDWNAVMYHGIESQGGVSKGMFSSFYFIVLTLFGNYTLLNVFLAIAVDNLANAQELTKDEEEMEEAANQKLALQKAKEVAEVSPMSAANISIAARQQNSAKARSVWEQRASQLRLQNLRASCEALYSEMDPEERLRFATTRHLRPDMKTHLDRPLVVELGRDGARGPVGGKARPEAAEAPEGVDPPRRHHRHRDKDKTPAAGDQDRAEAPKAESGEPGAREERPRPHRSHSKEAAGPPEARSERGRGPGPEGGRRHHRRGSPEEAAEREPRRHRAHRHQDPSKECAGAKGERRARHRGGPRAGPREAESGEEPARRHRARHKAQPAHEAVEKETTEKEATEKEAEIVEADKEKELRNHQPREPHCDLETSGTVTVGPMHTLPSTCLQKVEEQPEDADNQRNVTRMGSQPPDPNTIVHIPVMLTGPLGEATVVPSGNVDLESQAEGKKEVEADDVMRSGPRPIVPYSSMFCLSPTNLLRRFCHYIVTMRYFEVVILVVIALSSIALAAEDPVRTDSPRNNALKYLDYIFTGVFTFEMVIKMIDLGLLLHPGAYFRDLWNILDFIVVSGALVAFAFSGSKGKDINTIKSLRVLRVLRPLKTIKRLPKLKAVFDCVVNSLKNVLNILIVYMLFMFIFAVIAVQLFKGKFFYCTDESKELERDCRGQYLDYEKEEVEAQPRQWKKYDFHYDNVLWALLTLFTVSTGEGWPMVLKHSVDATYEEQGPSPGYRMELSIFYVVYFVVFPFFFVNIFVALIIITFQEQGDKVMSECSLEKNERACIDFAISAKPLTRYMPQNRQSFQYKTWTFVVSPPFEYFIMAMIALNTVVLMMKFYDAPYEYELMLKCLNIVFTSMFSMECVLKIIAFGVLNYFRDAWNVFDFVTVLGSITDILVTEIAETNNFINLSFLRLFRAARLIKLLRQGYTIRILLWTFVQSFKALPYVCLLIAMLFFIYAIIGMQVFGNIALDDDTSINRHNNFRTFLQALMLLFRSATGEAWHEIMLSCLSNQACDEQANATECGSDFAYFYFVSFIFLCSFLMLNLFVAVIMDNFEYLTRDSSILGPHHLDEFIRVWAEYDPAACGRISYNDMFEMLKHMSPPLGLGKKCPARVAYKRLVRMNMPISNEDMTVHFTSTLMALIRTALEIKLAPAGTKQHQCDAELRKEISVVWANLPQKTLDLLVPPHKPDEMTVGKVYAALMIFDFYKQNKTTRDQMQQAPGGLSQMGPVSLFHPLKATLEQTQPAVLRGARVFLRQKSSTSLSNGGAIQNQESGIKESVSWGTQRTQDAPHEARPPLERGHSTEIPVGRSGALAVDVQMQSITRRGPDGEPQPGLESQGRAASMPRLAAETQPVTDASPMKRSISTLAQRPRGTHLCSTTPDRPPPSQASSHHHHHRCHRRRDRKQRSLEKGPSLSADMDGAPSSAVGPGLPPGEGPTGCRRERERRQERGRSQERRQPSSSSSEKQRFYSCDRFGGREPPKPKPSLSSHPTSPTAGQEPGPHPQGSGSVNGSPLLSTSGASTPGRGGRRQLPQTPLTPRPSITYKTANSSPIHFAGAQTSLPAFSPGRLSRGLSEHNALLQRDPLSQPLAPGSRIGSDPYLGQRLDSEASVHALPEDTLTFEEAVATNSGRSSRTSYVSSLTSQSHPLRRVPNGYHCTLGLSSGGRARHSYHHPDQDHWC
Sequence of human Cav2.2 (P54289 25-951 partner limits assumed): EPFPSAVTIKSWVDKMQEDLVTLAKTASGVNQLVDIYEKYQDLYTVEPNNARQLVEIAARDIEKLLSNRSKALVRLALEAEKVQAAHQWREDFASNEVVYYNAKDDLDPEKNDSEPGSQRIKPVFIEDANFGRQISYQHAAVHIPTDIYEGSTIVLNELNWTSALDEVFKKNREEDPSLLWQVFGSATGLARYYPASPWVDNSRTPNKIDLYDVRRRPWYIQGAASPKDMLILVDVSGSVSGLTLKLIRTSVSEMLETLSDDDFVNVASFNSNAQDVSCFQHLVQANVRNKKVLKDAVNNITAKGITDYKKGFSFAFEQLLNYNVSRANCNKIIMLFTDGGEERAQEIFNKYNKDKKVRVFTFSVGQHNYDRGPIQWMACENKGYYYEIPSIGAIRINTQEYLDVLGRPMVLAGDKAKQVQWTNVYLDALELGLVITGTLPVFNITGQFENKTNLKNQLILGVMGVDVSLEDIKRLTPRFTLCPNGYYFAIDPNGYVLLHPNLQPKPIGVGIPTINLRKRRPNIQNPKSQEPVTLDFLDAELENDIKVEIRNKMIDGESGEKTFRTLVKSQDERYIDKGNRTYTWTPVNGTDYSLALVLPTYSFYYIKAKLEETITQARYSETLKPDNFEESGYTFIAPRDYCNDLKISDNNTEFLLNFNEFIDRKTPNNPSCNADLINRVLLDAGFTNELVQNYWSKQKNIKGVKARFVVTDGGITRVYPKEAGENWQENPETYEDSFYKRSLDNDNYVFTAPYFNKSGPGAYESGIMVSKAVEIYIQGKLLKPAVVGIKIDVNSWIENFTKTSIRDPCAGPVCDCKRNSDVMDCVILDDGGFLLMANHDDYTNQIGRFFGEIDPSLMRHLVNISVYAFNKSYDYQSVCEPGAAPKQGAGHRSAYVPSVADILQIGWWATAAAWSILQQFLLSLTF
Sequence of human Cav2.2 (P54289 952-1103 partner limits assumed): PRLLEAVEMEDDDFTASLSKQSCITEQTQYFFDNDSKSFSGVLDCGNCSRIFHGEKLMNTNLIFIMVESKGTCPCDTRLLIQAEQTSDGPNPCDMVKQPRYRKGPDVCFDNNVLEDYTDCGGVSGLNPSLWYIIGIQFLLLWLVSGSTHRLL
Sequence of human Cav2.2 (P54284 whole entry partner): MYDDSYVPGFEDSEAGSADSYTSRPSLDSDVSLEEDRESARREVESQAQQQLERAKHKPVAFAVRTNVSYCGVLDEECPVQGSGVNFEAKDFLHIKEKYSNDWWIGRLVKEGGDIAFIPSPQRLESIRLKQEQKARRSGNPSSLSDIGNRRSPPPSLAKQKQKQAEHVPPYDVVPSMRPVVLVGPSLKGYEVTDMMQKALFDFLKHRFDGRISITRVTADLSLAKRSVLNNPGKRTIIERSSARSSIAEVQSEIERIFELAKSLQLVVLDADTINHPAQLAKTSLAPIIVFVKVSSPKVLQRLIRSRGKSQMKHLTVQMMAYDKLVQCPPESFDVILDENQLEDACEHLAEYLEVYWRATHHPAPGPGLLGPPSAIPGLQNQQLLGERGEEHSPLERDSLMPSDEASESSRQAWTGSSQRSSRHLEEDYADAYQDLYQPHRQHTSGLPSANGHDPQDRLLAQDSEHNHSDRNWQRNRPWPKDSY

Row | IC50 | SMILES
1 | 34.8 µM | O=C(CN1CCCC(c2ccccc2)C1=O)N1Cc2ccc(F)cc2C1 (stereo not shown) [Example 95, 1-[2-(5-fluoro-1,3-dihydro-2H-isoindol-2-yl)-2-oxoethyl]-3-phenylpiperidin-2-one]
2 | 7.35 µM | O=C(CN1CCC(c2ccc(C(F)(F)F)cc2)C1=O)N1Cc2ccc(C(F)(F)F)cc2C1 (stereo not shown) [Example 267, 1-{2-oxo-2-[5-(trifluoromethyl)-1,3-dihydro-2H-isoindol-2-yl]ethyl}-3-[4-(trifluoromethyl)phenyl]pyrrolidin-2-one]
3 | 10 µM | O=C(CN1CCCC(c2ccccc2)C1=O)NC1(c2ccc(F)cc2)CCC1 (stereo not shown) [Example 97, N-[1-(4-fluorophenyl)cyclobutyl]-2-(2-oxo-3-phenylpiperidin-1-yl)acetamide]
4 | 1.03 µM | O=C(CN1CCC(c2ccccc2)(c2ccccc2)C1=O)N1CCN(Cc2cccc(C(F)(F)F)c2)CC1 [Example 37, 1-(2-oxo-2-{4-[3-(trifluoromethyl)benzyl]piperazin-1-yl}ethyl)-3,3-diphenylpyrrolidin-2-one]
5 | 1.15 µM | O=C(CN1CCCC(c2ccccc2)(c2ccccc2)C1=O)N[C@H]1CCN(Cc2cccc(C(F)(F)F)c2)C1 [Example 185, 2-(2-oxo-3,3-diphenylpiperidin-1-yl)-N-{(3S)-1-[3-(trifluoromethyl)benzyl]pyrrolidin-3-yl}acetamide]
6 | 3.04 µM | O=C(CN1CCCC(c2ccccc2)(c2ccccc2)C1=O)N1CCC(Oc2ccc(F)c(F)c2)CC1 [Example 160, 1-{2-[4-(3,4-difluorophenoxy)piperidin-1-yl]-2-oxoethyl}-3,3-diphenylpiperidin-2-one]
7 | 0.94 µM | O=C(CN1CCCC(c2ccccc2)(c2ccccc2)C1=O)NC1CN(Cc2cccc(C(F)(F)F)c2)C1 [Example 180, 2-(2-oxo-3,3-diphenylpiperidin-1-yl)-N-{1-[3-(trifluoromethyl)benzyl]azetidin-3-yl}acetamide]
8 | 0.69 µM | O=C(CN1CCC(c2ccccc2)(c2ccccc2)C1=O)N1CCOC(c2ccccc2)(c2ccccc2)C1 [Example 23, 1-[2-(2,2-diphenylmorpholin-4-yl)-2-oxoethyl]-3,3-diphenylpyrrolidin-2-one]
9 | 3.17 µM | O=C(CN1CCC(c2ccc(F)cc2)(c2ccc(F)cc2)C1=O)NC1CN(Cc2ccccc2)C1 [Example 242, N-(1-benzylazetidin-3-yl)-2-[3,3-bis(4-fluorophenyl)-2-oxopyrrolidin-1-yl]acetamide]
10 | 2.6 µM | O=C(CN1CCC(c2ccccc2)(c2ccccc2)C1=O)NCC1CCN(Cc2ccccc2)C1 (stereo not shown) [Example 39, N-[(1-benzylpyrrolidin-3-yl)methyl]-2-(2-oxo-3,3-diphenylpyrrolidin-1-yl)acetamide]
11 | 1.53 µM | O=C(CN1CCC(c2ccc(F)cc2)(c2ccc(F)cc2)C1=O)N1Cc2ccc(C(F)(F)F)cc2C1 [Example 228, 3,3-bis(4-fluorophenyl)-1-{2-oxo-2-[5-(trifluoromethyl)-1,3-dihydro-2H-isoindol-2-yl]ethyl}pyrrolidin-2-one]
12 | 1.74 µM | O=C(CN1CCCC(c2ccccc2)(c2ccccc2)C1=O)N1CCC(C(O)(c2ccccc2)c2ccccc2)CC1 [Example 78, 1-(2-{4-[hydroxy(diphenyl)methyl]piperidin-1-yl}-2-oxoethyl)-3,3-diphenylpiperidin-2-one]
13 | 2.65 µM | O=C(CN1CCC(c2ccccc2)(c2ccccc2)C1=O)N1CCNC(Cc2ccccc2)C1 (stereo not shown) [Example 18, 1-[2-(3-benzylpiperazin-1-yl)-2-oxoethyl]-3,3-diphenylpyrrolidin-2-one]
14 | 1.83 µM | O=C(CN1CCC(c2ccccc2)(c2ccccc2)C1=O)N1CCC(c2ccccc2)C1 (stereo not shown) [Example 21, 1-[2-oxo-2-(3-phenylpyrrolidin-1-yl)ethyl]-3,3-diphenylpyrrolidin-2-one]
15 | 0.72 µM | O=C(CN1CCCC(c2ccccc2)(c2ccccc2)C1=O)NC1CN(Cc2ccc(F)c(C(F)(F)F)c2)C1 [Example 198, N-{1-[4-fluoro-3-(trifluoromethyl)benzyl]azetidin-3-yl}-2-(2-oxo-3,3-diphenylpiperidin-1-yl)acetamide]
16 | 2.29 µM | O=C(CN1CCC(c2ccccc2)(c2ccccc2)C1=O)N1CCC[C@@H]2CN(C(c3ccccc3)c3ccccc3)C[C@@H]21 [Example 51, 1-{2-[(4aR,7aR)-6-benzhydryloctahydro-1H-pyrrolo[3,4-b]pyridin-1-yl]-2-oxoethyl}-3,3-diphenylpyrrolidin-2-one]
17 | 3.96 µM | O=C(CN1CCC(c2ccccc2)(c2ccccc2)C1=O)NC1Cc2ccccc2C1 [Example 22, N-2,3-dihydro-1H-inden-2-yl-2-(2-oxo-3,3-diphenylpyrrolidin-1-yl)acetamide]
18 | 3.46 µM | O=C(CN1CCCC(c2ccccc2)(c2ccccc2)C1=O)N1CCCC1c1ccc(F)cc1 (stereo not shown) [Example 73, 1-{2-[2-(4-fluorophenyl)pyrrolidin-1-yl]-2-oxoethyl}-3,3-diphenylpiperidin-2-one]
19 | 8.07 µM | COc1ccc2[nH]cc(C3=CCN(C(=O)CN4CCC(c5ccccc5)(c5ccccc5)C4=O)CC3)c2c1 [Example 35, 1-{2-[4-(5-methoxy-1H-indol-3-yl)-3,6-dihydropyridin-1(2H)-yl]-2-oxoethyl}-3,3-diphenylpyrrolidin-2-one]
20 | 12.1 µM | O=C(CN1CCC(c2ccc(F)cc2)C1=O)N1Cc2ccc(F)cc2C1 (stereo not shown) [Example 227, 1-[2-(5-fluoro-1,3-dihydro-2H-isoindol-2-yl)-2-oxoethyl]-3-(4-fluorophenyl)pyrrolidin-2-one]

The next lines start with the compound.

Row | SMILES | IC50
21 | O=C1N(CCCN2CCN(c3ncccn3)CC2)CCCC1(c1ccc(F)cc1)c1ccc(F)cc1 [Example 135, 3,3-bis(4-fluorophenyl)-1-[3-(4-pyrimidin-2-ylpiperazin-1-yl)propyl]piperidin-2-one] | 3.01 µM
22 | O=C1N(CCCN2CCN(c3cccc(C(F)(F)F)c3)CC2)CCCC1(c1ccc(F)cc1)c1ccc(F)cc1 [Example 142, 3,3-bis(4-fluorophenyl)-1-(3-{4-[3-(trifluoromethyl)phenyl]piperazin-1-yl}propyl)piperidin-2-one] | 1.23 µM
23 | CC(C)(C)c1ccc(-c2noc(CN3CCC(c4ccccc4)(c4ccccc4)C3=O)n2)cc1 [Example 202, 1-{[3-(4-tert-butylphenyl)-1,2,4-oxadiazol-5-yl]methyl}-3,3-diphenylpyrrolidin-2-one] | 10.4 µM
24 | O=C(CN1CCC(c2ccc(F)cc2)(c2ccc(F)cc2)C1=O)Nc1cccc(C(F)(F)F)n1 [Example 226, 2-[3,3-bis(4-fluorophenyl)-2-oxopyrrolidin-1-yl]-N-[6-(trifluoromethyl)pyridin-2-yl]acetamide] | 2.46 µM
25 | CC(C)(C)OC(=O)Nc1ccc(-c2noc(CN3CCC(c4ccccc4)(c4ccccc4)C3=O)n2)cn1 [Example 231, tert-butyl 5-{5-[(2-oxo-3,3-diphenylpyrrolidin-1-yl)methyl]-1,2,4-oxadiazol-3-yl}pyridin-2-ylcarbamate] | > 30 µM
26 | O=C(CN1CCC(c2ccccc2)(c2ccccc2)C1=O)NCc1ccc(C(F)(F)F)cc1 [Example 8, 2-(2-oxo-3,3-diphenylpyrrolidin-1-yl)-N-[4-(trifluoromethyl)benzyl]acetamide] | 1.49 µM
27 | O=C1N(Cc2nc(CCc3ccc(Cl)cc3)no2)CCC1(c1ccc(F)cc1)c1ccc(F)cc1 [Example 165, 1-({3-[2-(4-chlorophenyl)ethyl]-1,2,4-oxadiazol-5-yl}methyl)-3,3-bis(4-fluorophenyl)pyrrolidin-2-one] | 3.39 µM
28 | O=C1N(Cc2nc(-c3cccnc3)no2)CCC1(c1ccccc1)c1ccccc1 [Example 221, 3,3-diphenyl-1-[(3-pyridin-3-yl-1,2,4-oxadiazol-5-yl)methyl]pyrrolidin-2-one] | 5.67 µM
29 | COc1cc(CN2CCN(CCCN3CCCC(c4cccc(OC)c4)(C(C)C)C3=O)CC2)cc(OC)c1 (stereo not shown) [Example 133, 1-{3-[4-(3,5-dimethoxybenzyl)piperazin-1-yl]propyl}-3-isopropyl-3-(3-methoxyphenyl)piperidin-2-one] | 0.67 µM
30 | N#Cc1ccc(NC(=O)CN2CCC(c3ccccc3)(c3ccccc3)C2=O)nc1 [Example 251, N-(5-cyanopyridin-2-yl)-2-(2-oxo-3,3-diphenylpyrrolidin-1-yl)acetamide] | 8.32 µM
31 | O=C1N(Cc2nc(Cc3ccc(Cl)cc3)no2)CCCC1(c1ccccc1)c1ccccc1 [Example 207, 1-{[3-(4-chlorobenzyl)-1,2,4-oxadiazol-5-yl]methyl}-3,3-diphenylpiperidin-2-one] | 5.03 µM
32 | O=C1N(Cc2nc(-c3cccc(C(F)(F)F)c3)no2)CCCC1(c1ccccc1)c1ccccc1 [Example 179, 3,3-diphenyl-1-({3-[3-(trifluoromethyl)phenyl]-1,2,4-oxadiazol-5-yl}methyl)piperidin-2-one] | 9.41 µM
33 | O=C1N(Cc2nc(-c3ccc(C(F)(F)F)nc3)no2)CCC1(c1ccc(F)cc1)c1ccc(F)cc1 [Example 212, 3,3-bis(4-fluorophenyl)-1-({3-[6-(trifluoromethyl)pyridin-3-yl]-1,2,4-oxadiazol-5-yl}methyl)pyrrolidin-2-one] | 2.63 µM
34 | O=C(CN1CCC(c2ccccc2)(c2ccccc2)C1=O)NCc1ccccc1 [Example 6, N-benzyl-2-(2-oxo-3,3-diphenylpyrrolidin-1-yl)acetamide] | 5.74 µM
35 | COc1ccc(C2(c3ccc(OC)cc3)CCCN(CCN3CCN(Cc4cc(OC)cc(OC)c4)CC3)C2=O)cc1 [Example 132, 1-{2-[4-(3,5-dimethoxybenzyl)piperazin-1-yl]ethyl}-3,3-bis(4-methoxyphenyl)piperidin-2-one] | 2.3 µM
36 | COc1ccccc1N1CCN(CCCN2CCCC(c3ccc(F)cc3)(c3ccc(F)cc3)C2=O)CC1 [Example 138, 3,3-bis(4-fluorophenyl)-1-{3-[4-(2-methoxyphenyl)piperazin-1-yl]propyl}piperidin-2-one] | 1.42 µM
37 | COc1cc(CN2CCN(CCCN3CCC(c4ccc(F)cc4)(c4ccc(F)cc4)C3=O)CC2)cc(OC)c1OC [Example 110, 3,3-bis(4-fluorophenyl)-1-{3-[4-(3,4,5-trimethoxybenzyl)piperazin-1-yl]propyl}pyrrolidin-2-one] | 1.47 µM
